Results reported in US20020137929A1, “1 - (3-heterocyclylphenyl) isothiourea, -isourea, -guanidine and -amidine herbicidal agents” (Intellectual Property Department, BASF Aktiengesellschaft, priority 1998, published 2002).

Tests used:
[1] = system: ORYSAT (Rice, Tebonnet); assay: Postemergence herbicidal evaluation; format: in vivo, Oryza sativa, (L.) Tebonnet; settings: postemergence
How it was run: (§1)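 ~2-wk seedlings; postemergence spray, 40 psi; vehicle 1:1 acetone:water + 0.5% Tween 20; rate ≈0.0156–0.500 kg/ha; greenhouse hold; scored 4–5 wk after treatment, 0–9 scale vs control; repeat tests averaged.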

[2] = system: ECHCG (Barnyardgrass); assay: Postemergence herbicidal evaluation; format: in vivo, Echinochloa crus-galli; settings: postemergence
How it was run: as §1

[3] = system: MOOVA (Monochoria); assay: Preemergence weed control under flooded paddy conditions; format: in vivo, Monochoria vaginalis; settings: rated 3-4 weeks after treatment
How it was run: (§2)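 Silt loam, seeds in top 0.5 cm; flood held 1.5-3 cm; test cpd as acetone/water 50/50 into flood water, ~0.0313-0.500 kg/ha a.i.; greenhouse 3-4 wk; visual 0-9 score vs control.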

[4] = system: GLXMAW (Soybean, Williams); assay: Postemergence herbicidal evaluation; format: in vivo, Glycine max, (L.) Merr. cv Williams; settings: postemergence
How it was run: as §1

[5] = system: SETVI (Foxtail, Green); assay: Preemergence herbicidal evaluation; format: in vivo, Setaria viridis; settings: rated 4-5 weeks after treatment, rating scale 0-9
How it was run: (§3)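 Preemergence soil application of compound, sprayed in aqueous acetone at rates equivalent to about 0.0156 to 0.500 kg per hectare onto freshly sown cups. Plant response was judged by eye on a 0-9 scale four to five weeks later.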

[6] = system: ABUTH (Velvetleaf); assay: Preemergence herbicidal evaluation; format: in vivo, Abutilon theophrasti; settings: rated 4-5 weeks after treatment, rating scale 0-9
How it was run: as §3

[7] = system: CASOB (Sicklepod); assay: Preemergence herbicidal evaluation; format: in vivo, Cassia obtusifolia; settings: rated 4-5 weeks after treatment, rating scale 0-9
How it was run: as §3

[8] = system: SETVI (Foxtail, Green); assay: Postemergence herbicidal evaluation; format: in vivo, Setaria viridis; settings: postemergence
How it was run: as §1

[9] = system: AMBEL (Ragweed, Common); assay: Postemergence herbicidal evaluation; format: in vivo, Ambrosia artemisifolia; settings: postemergence
How it was run: as §1

[10] = system: SAGPY (Arrowhead (Pygmaea)); assay: Preemergence weed control under flooded paddy conditions; format: in vivo, Sagittaria pygmaea; settings: rated 3-4 weeks after treatment
How it was run: as §2

[11] = system: TRZAWR (Wheat, Winter, cv Riband); assay: Postemergence herbicidal evaluation; format: in vivo, Triticum aestivum; settings: postemergence
How it was run: as §1

[12] = system: ABUTH (Velvetleaf); assay: Postemergence herbicidal evaluation; format: in vivo, Abutilon theophrasti; settings: postemergence
How it was run: as §1

Cn1c(C(F)(F)F)cc(=O)n(-c2cc(N=C3SCC(=O)N3Cc3ccc(Br)cc3)c(Cl)cc2F)c1=O [Compound 148, 3-{5-{[3-(p-Bromobenzyl)-4-oxo-2-thiazolidinyl-idene]amino}-4-chloro-2-fluorophenyl}-1-methyl-6-(trifluoromethyl)-2,4(1H,3H)-pyrimidinedione]
herbicidal rating ORYSAT ([1]; rate 0.0156 kg/ha): 2.0
herbicidal rating ORYSAT ([1]; rate 0.0313 kg/ha): 3.0
herbicidal rating ORYSAT ([1]; rate 0.0625 kg/ha): 3.0
herbicidal rating ECHCG ([2]; rate 0.0156 kg/ha): 2.0
herbicidal rating ECHCG ([2]; rate 0.0313 kg/ha): 3.0
herbicidal rating ECHCG ([2]; rate 0.0625 kg/ha): 3.0
herbicidal effect rating, MOOVA ([3]; 0.0313 kg/ha): 7.0
herbicidal effect rating, MOOVA ([3]; 0.0625 kg/ha): 7.0
herbicidal effect rating, MOOVA ([3]; 0.1250 kg/ha): 9.0
herbicidal effect rating, MOOVA ([3]; 0.2500 kg/ha): 9.0
herbicidal rating GLXMAW ([4]; rate 0.0156 kg/ha): 4.5
herbicidal rating GLXMAW ([4]; rate 0.0313 kg/ha): 5.0
herbicidal rating GLXMAW ([4]; rate 0.0625 kg/ha): 6.5
Preemergence herbicidal rating SETVI ([5]; rate 0.0313 kg/ha): 1.0
Preemergence herbicidal rating SETVI ([5]; rate 0.0625 kg/ha): 0.0
Preemergence herbicidal rating SETVI ([5]; rate 0.1250 kg/ha): 0.0
Preemergence herbicidal rating SETVI ([5]; rate 0.2500 kg/ha): 5.0
Preemergence herbicidal rating ABUTH ([6]; rate 0.0313 kg/ha): 0.0
Preemergence herbicidal rating ABUTH ([6]; rate 0.0625 kg/ha): 1.0
Preemergence herbicidal rating ABUTH ([6]; rate 0.1250 kg/ha): 4.0
Preemergence herbicidal rating ABUTH ([6]; rate 0.2500 kg/ha): 4.0
Preemergence herbicidal rating CASOB ([7]; rate 0.0313 kg/ha): 0.0
Preemergence herbicidal rating CASOB ([7]; rate 0.0625 kg/ha): 0.0
Preemergence herbicidal rating CASOB ([7]; rate 0.1250 kg/ha): 0.0
Preemergence herbicidal rating CASOB ([7]; rate 0.2500 kg/ha): 0.0
herbicidal rating SETVI ([8]; rate 0.0156 kg/ha): 2.0
herbicidal rating SETVI ([8]; rate 0.0313 kg/ha): 2.0
herbicidal rating SETVI ([8]; rate 0.0625 kg/ha): 4.0
herbicidal rating AMBEL ([9]; rate 0.0156 kg/ha): 9.0
herbicidal rating AMBEL ([9]; rate 0.0313 kg/ha): 7.0
herbicidal rating AMBEL ([9]; rate 0.0625 kg/ha): 9.0
herbicidal effect rating, SAGPY ([10]; 0.0313 kg/ha): 0.0
herbicidal effect rating, SAGPY ([10]; 0.0625 kg/ha): 3.0
herbicidal effect rating, SAGPY ([10]; 0.1250 kg/ha): 4.0
herbicidal effect rating, SAGPY ([10]; 0.2500 kg/ha): 4.0
herbicidal rating TRZAWR ([11]; rate 0.0156 kg/ha): 2.5
herbicidal rating TRZAWR ([11]; rate 0.0313 kg/ha): 3.0
herbicidal rating TRZAWR ([11]; rate 0.0625 kg/ha): 4.0
herbicidal rating ABUTH ([12]; rate 0.0156 kg/ha): 9.0
herbicidal rating ABUTH ([12]; rate 0.0313 kg/ha): 9.0
herbicidal rating ABUTH ([12]; rate 0.0625 kg/ha): 9.0
